Literature values as cited in patent US12508229B2, “Method for preparing stable peptide formulations” (Amphastar Pharmaceuticals, Inc., priority 2019, dated 2025).

Molecule | aqueous solubility | aqueous solubility (in words)
OC[C@H]1O[C@@H]2O[C@H]3[C@H](O)[C@@H](O)[C@@H](O[C@H]4[C@H](O)[C@@H](O)[C@@H](O[C@H]5[C@H](O)[C@@H](O)[C@@H](O[C@H]6[C@H](O)[C@@H](O)[C@@H](O[C@H]7[C@H](O)[C@@H](O)[C@@H](O[C@H]1[C@H](O)[C@H]2O)O[C@@H]7CO)O[C@@H]6CO)O[C@@H]5CO)O[C@@H]4CO)O[C@@H]3CO [α-CD, α-cyclodextrin] | about 5 wt % | –
OC[C@H]1O[C@@H]2O[C@H]3[C@H](O)[C@@H](O)[C@@H](O[C@H]4[C@H](O)[C@@H](O)[C@@H](O[C@H]5[C@H](O)[C@@H](O)[C@@H](O[C@H]6[C@H](O)[C@@H](O)[C@@H](O[C@H]7[C@H](O)[C@@H](O)[C@@H](O[C@H]8[C@H](O)[C@@H](O)[C@@H](O[C@H]9[C@H](O)[C@@H](O)[C@@H](O[C@H]1[C@H](O)[C@H]2O)O[C@@H]9CO)O[C@@H]8CO)O[C@@H]7CO)O[C@@H]6CO)O[C@@H]5CO)O[C@@H]4CO)O[C@@H]3CO [γ-cyclodextrin] | – | freely soluble in water
hydroxypropyl β-cyclodextrin [HP-ß-CD] | – | higher aqueous solubility than α-CD
